Test system: Purified bovine brain tubulin
Test: in vitro tubulin polymerization assay (turbidimetric)
Format: biochemical
Conditions: GTP-initiated, 30 C, turbidity monitored for 15 minutes, read-out: 1C50, inhibitory effects on tubulin polymerization in vitro
Experimental: Anti-mitotic activity can be evaluated by testing the ability of a compound of the invention to inhibit tubulin polymerization and microtubule assembly in vitro. The tubulin/microtubule system is instrumental in the formation in the mitotic spindle, making it a prime target for anti-mitotic agents. In vitro tubulin polymerization assays are performed to serve as an estimate of the in vivo cytotoxic activity of designated compounds. Purified bovine brain tubulin (120 μl, 4 mg/ml), 240 μl PME (100 mm piperazine-n, n-bis(2-ethane-sulfonic acid i.e., pipes, ph 6.9, 1 mm MgSO4, 2 mm ethyleneglycol-bis-(β-aminoethyl ether) N, N, N', N'-tetraacetic acid i.e. EGTA and 40 μl dimethyl sulfoxide i.e. DMSO, are combined and transferred to a 1 ml quartz cuvet. Polymerization is initiated by the addition of guanosine triphosphate i.e. GTP, (8 μl, 50 mM) and monitored turbidometrically in a Varian DMS 90 UV-Vis spectrophotometer in a temperature controlled cuvet holder at 30_C. Tubidity increases with increasing tubulin polymerization, giving a false absorbence reading and, over time, a polymerization curve. […] 200 μM solutions (in DMSO) of compounds to be assayed were prepared, and substituted for portions of the DMSO in the polymerization mixture.
The method is given above in-vitro assay for anti-miotic activity.

| Compound | IC50 [µM] |
| --- | --- |
| 4 Chloro-A-Homo-4,5(10)-estradien-2,17β-diol-3-one [Compound 11b] | 9.8 |
| C[C@]12CC[C@@H]3c4cccc(=O)cc4CC[C@H]3[C@@H]1CC[C@@H]2O [Compound 3, A-Homo-1(10), 2,4a-estratrien-17β-ol-4-one] | 7.2 |
| C[C@]12CC[C@@H]3c4ccc(=O)ccc4CC[C@H]3[C@@H]1CC[C@@H]2O [Compound 6, A-Homo-1,4,5(10)-estratrien-17β-ol-3-one] | 4.4 |
| C[C@]12CC[C@@H]3c4ccc(Br)c(=O)cc4CC[C@H]3[C@@H]1CC[C@@H]2O [Compound 8a, 3-Bromo-A-Homo-1(10), 2,4a-estratrien-17β-ol-4-one] | 2.9 |
| C[C@]12CC[C@@H]3c4ccc(Cl)c(=O)cc4CC[C@H]3[C@@H]1CC[C@@H]2O [Compound 8b, 3-Chloro -A-Homo-1(10), 2,4a-estratrien-17β ol-4-one] | 2.8 |
| COc1ccc2c(cc1=O)CC[C@@H]1[C@@H]2CC[C@]2(C)[C@@H](O)CC[C@@H]12 [Compound 8c, 3-Methoxy-A-Homo-1(10), 2,4a-estratrien-17β-ol-4-one] | 8.1 |
| COc1cc2c(ccc1=O)[C@H]1CC[C@]3(C)[C@@H](O)CC[C@H]3[C@@H]1CC2 [Compound 11c, 4-Methoxy-A-Homo-1,4,5(10)-estratrien-17β-ol-3-one] | 2.1 |
| CCOc1cc2c(ccc1=O)[C@H]1CC[C@]3(C)[C@@H](O)CC[C@H]3[C@@H]1CC2 [Compound 11d, 3-Ethoxy-A-Homo-1,4,5(10)-estratrien-17β-ol-3-one] | 5.9 |
| COc1ccc2c(cc1=O)[C@H]1CC[C@]3(C)[C@@H](O)CC[C@H]3[C@@H]1CC2 [Compound 12, 3-Methoxy-A-Homo-1(10), 3,4a-estratrien-17β-ol-2-one] | 27.5 |
| COc1cc2c(ccc1=O)CC[C@@H]1[C@@H]2CC[C@]2(C)[C@@H](O)CC[C@@H]12 [Compound 13, 2-Methoxy-A-Homo-1,4,5(10)-estratrien-17β-ol-3-one] | 29.8 |
| C[C@]12CC[C@@H]3c4ccc(N)c(=O)cc4CC[C@H]3[C@@H]1CC[C@@H]2O [Compound 14, 3-Amino-A-homo-1(10), 2,4a-estratrien-17β-ol-4-one] | 14.4 |
| C[C@]12CC[C@@H]3c4cc(N)c(=O)ccc4CC[C@H]3[C@@H]1CC[C@@H]2O [Compound 15a, 2-Amino-A-homo-1,4,5(10)-estratrien-17β-ol-3-one] | 16.5 |
| C[C@]12CC[C@@H]3c4ccc(=O)c(N)cc4CC[C@H]3[C@@H]1CC[C@@H]2O [Compound 15b, 4-Amino-A-homo-1,4,5(10)-estratrien-17β-ol-3-one] | 9.2 |
| C[C@]12CC[C@@H]3c4cc(O)c(=O)ccc4CC[C@H]3[C@@H]1CC[C@@H]2O [Compound 16a, A-homo-1,4,5(10)-estratrien-2, 17β-diol-3-one] | 14.9 |
| C[C@]12CC[C@@H]3c4ccc(O)c(=O)cc4CC[C@H]3[C@@H]1CC[C@@H]2O [Compound 16b, A-homo-1(10), 2,4a-estratrien-3,17β-diol-3-one] | 22.8 |
| C[C@]12CC[C@@H]3c4ccc([N+](=O)[O-])c(=O)cc4CC[C@H]3[C@@H]1CC[C@@H]2O [Compound 17a, 3-Nitro-A-homo-1(10), 2,4a-estratrien-17β-ol-4-one] | 52 |
| C=Cc1ccc2c(cc1=O)CC[C@@H]1[C@@H]2CC[C@]2(C)[C@@H](O)CC[C@@H]12 [Compound 18, 3-Vinyl-A-homo-1(10), 2,4a-estratrien-17β-ol-4-one] | 14.2 |
| CNc1ccc2c(cc1=O)CC[C@@H]1[C@@H]2CC[C@]2(C)[C@@H](O)CC[C@@H]12 [Compound 19a, 3-Methylamino-A-homo-1(10), 2,4a-estratrien-17β-ol-4-one] | 60.7 |
| CN(C)c1ccc2c(cc1=O)CC[C@@H]1[C@@H]2CC[C@]2(C)[C@@H](O)CC[C@@H]12 [Compound 19b, 3-Dimethylamino-A-homo-1(10), 2,4a-estratrien-17β-ol-4-one] | 14.3 |
| CNc1cc2c(ccc1=O)[C@H]1CC[C@]3(C)[C@@H](O)CC[C@H]3[C@@H]1CC2 [Compound 19c, 4-Methylamino-A-homo-1,4,5(10)-estratrien-17β-ol-3-one] | 19.4 |
| CN(C)c1cc2c(ccc1=O)[C@H]1CC[C@]3(C)[C@@H](O)CC[C@H]3[C@@H]1CC2 [Compound 19d, 4-Dimethylamino-A-homo-1,4,5(10)-estratrien-17β-ol-3-one] | 46.8 |
